Literature values, collected in patent US20030108955A1, “Dioxin derivatives and method of measurement therewith” (priority 2000, published 2003).

Conditions: general knowledge

With O=C(O)CCCC[C@@H]1SC[C@@H]2NC(=O)N[C@@H]21 [biotin] as the compound, how does the water solubility read?
The water solubility was “insoluble to water”.
